From article PMC12999171 (eLife, 2026)

How the values were obtained:
[1] = molecular target: iGABASnFR1 (Pseudomonas fluorescens, UniProt A0A1B3D787, F126L/N285A); test: biochemical; format: binding
From the text: (§1) The fluorescence data was fitted to the Hill function in GraphPad Prism to determine affinity values.

[2] = molecular target: iGABASnFR2n (Pseudomonas fluorescens, UniProt A0A1B3D787, F126L/F129H/N285A/S124A); test: biochemical; format: binding
iGABASnFR2n, sequence (A0A1B3D787 27-341, stated change not applied): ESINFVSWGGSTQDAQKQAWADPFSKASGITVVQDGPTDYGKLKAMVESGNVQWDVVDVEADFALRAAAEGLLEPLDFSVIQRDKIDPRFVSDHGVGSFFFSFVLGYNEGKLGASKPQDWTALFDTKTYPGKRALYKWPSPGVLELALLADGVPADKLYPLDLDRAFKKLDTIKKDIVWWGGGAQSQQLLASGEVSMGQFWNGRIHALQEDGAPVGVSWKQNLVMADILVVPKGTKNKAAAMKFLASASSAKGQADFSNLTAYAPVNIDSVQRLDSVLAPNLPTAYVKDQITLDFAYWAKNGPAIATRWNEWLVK
iGABASnFR2n, sequence (P42212 whole entry Y145W/R168P partner): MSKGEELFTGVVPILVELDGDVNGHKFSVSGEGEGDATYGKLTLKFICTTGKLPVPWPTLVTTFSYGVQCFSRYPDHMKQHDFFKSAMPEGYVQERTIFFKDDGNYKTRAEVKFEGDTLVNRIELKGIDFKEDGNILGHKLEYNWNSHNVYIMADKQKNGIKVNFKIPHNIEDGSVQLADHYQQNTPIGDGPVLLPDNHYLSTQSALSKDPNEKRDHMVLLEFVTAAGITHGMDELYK
From the text: as §1

iGABASnFR1, sequence (A0A1B3D787 27-341, stated change not applied): as the sequence (A0A1B3D787 27-341, stated change not applied) above
iGABASnFR1, sequence (P42212 with tags, fused parts or gaps S30R/Y39N/F64L/F99S/N105T/Y145W partner): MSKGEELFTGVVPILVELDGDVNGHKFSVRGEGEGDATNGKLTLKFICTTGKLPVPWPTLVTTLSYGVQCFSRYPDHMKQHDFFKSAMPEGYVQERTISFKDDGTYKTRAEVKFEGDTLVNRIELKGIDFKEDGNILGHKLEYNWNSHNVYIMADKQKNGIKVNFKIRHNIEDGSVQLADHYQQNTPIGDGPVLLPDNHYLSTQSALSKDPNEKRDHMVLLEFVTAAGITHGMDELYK

Compound	EC50 [1] [µM]	EC50 [2] [µM]
C[C@H](N)C(=O)O [alanine]	1710	582
N=C(N)NCCC[C@H](N)C(=O)O [arginine]	59	3.35
NC(=O)C[C@H](N)C(=O)O [asparagine]	8490	5500
N[C@@H](CC(=O)O)C(=O)O [aspartate]	2.39	0.526
NCC(CC(=O)O)c1ccc(Cl)cc1 (centres unmarked) [baclofen, reference compound]	7380	6.3
CN1CCc2cc3c(cc2[C@H]1[C@@H]1OC(=O)c2c1ccc1c2OCO1)OCO3 [bicuculline, reference compound]		9000
NCCc1c[nH]cn1 [histamine]		9000
CC[C@H](C)[C@H](N)C(=O)O [isoleucine]	2.45	111
NCCCC[C@H](N)C(=O)O [lysine]	77.5	741
CSCC[C@H](N)C(=O)O [methionine]	0.419	9000
NCc1cc(=O)[nH]o1 [muscimol, reference compound]	5.81	2.62
N[C@@H](Cc1ccccc1)C(=O)O [phenylalanine]	3.71	1150
O=C(O)[C@@H]1CCCN1 [proline]		2490
N[C@@H](CO)C(=O)O [serine]	50.9	5520
C[C@@H](O)[C@H](N)C(=O)O [threonine]	19.9	9000
Cc1ccsc1C(=CCCN1CCC[C@@H](C(=O)O)C1)c1sccc1C [tiagabine, reference compound]		2230
N[C@@H](Cc1c[nH]c2ccccc12)C(=O)O [tryptophan]		0.396
CC(C)[C@H](N)C(=O)O [valine]	1.34	1.47
C=CC(N)CCC(=O)O (centres unmarked) [vigabatrin, reference compound]	5430	
